# Patent publication US20240238425A1, “HSD17B13 Inhibitors and/or Degraders” (Pfizer Inc., priority 2022, published 2024)
# Test system: HiBiT-HSD17β13 fusion protein (N-terminal HiBiT-tagged HSD17β13 isoform D) in Huh7 HiBiT-HSD17β13 OE cells
# Test: Whole-cell Huh7-HSD17B13 HiBiT assay (degrader potency and maximal efficacy, luminescence readout)
# Assay type: cell-based, human
# Conditions: 24 hour incubation, geometric mean, * = geometric mean for all forms tested (parent and salt forms); for DC50: read-out: Huh7_HIBIT-HSD17β13_DC50 GMean DC50; for Huh7_HIBIT-HSD17β13_DC50 GMean Asymptote Maximum: max. concentration 1 μM
# Description: Degrader potency and maximal efficacy of test compounds were determined using a whole-cell Huh7-HSD17B13 HiBiT assay, utilizing a luminescence readout. A HiBiT tag was fused to the N-terminus of HSD17β13, and therefore the HiBiT luminescence signal produced in the assay was proportional to the level of HiBiT-HSD17β13 fusion protein in a sample.
# A Huh7 HiBiT-HSD17β13 OE cell line was generated using electroporation with an N-terminal HiBiT-tagged HSD17β13 isoform D overexpression plasmid, followed by geneticin selection to produce a stable pool. Clones were created with varying HiBiT signals to optimize HiBiT HSD17 β13 ratios. A clone with similar HSD17β13 expression levels as human primary hepatocytes was selected for the compound screen.
# Greiner 384-well white opaque, flat bottom, tissue culture treated plates (Greiner #781080) were used for both HiBiT and CTG assays. The treated plates were spotted with 25 nL of a compound which had been serial diluted 1 in 3.162 in 100% DMSO for an 11-point concentration response curve, with duplicate points at each concentration. The maximum concentration of the compounds was 1 mM, which was later diluted with cell suspension for a maximum concentration of 1 μM). High percentage effect (HPE) wells and zero percentage effect (ZPE) wells located in columns 1 and 24 were spotted with 25 nL of DMSO (Sigma #D2650) using an ECHO Acoustic Liquid Handler (Labcyte Echo 550 Series). Each plate was performed in duplicate.
# The Huh7 HiBiT-HSD17β13 OE cells were plated on top of a compound or a DMSO control at 3,000 viable cells/well in 25 μL growth media (DMEM (Gibco #10569), 10% FBS HI (Gibco #16140), 1× Pen/Strep (Gibco #15070), 1×MEM Non-Essential Amino Acids (Gibco #11140), and 300 μg/mL Geneticin (Gibco #10131) in columns 2-24 of the plates. Huh7 parental cells were plated using the same parameters in column 1 (HPE) in the same culture medium, excluding Geneticin selection. Cells were incubated overnight with the compounds for 24 hours (with lid) at 37° C. ([…]).
# Each assay was conducted after a 24 hour incubation period. In the HiBiT assay plates, 25 μL of complete Nano-Glo HiBiT Lytic detection system (Promega #PRN3040), consisting of HiBiT Lytic Buffer with the addition of 1:100 LgBiT Protein and 1:50 Substrate, was added to each well. In CTG counter screen plates, 25 μL of Cell Titer-Glo Luminescent Reagent (Promega #G7573) was added to each well. Both plates were centrifuged for 2 minutes at 1000 rpm and incubated at room temperature, in the dark, for 10 minutes. Then Luminescence was read using an EnVision Plate Reader (Perkin Elmer PE2103).
# The raw data from the Envision Plate Reader was expressed as relative luminescence units (RLUs) for each well of the assay plates. Using HPE and ZPE controls, the % effect was calculated for each sample well as follows: Percent effect=[(sample RLU−HPE RLU)\(ZPE RLU−HPE RLU)]*100. The percent effect was plotted versus the compound concentration and a 50% degradation ([…]) was determined using a four-parameter logistic dose response equation. The raw data was analyzed using ABase (IDBS).
Compound,DC50 [nM],Huh7_HIBIT-HSD17β13_DC50 GMean Asymptote Maximum
"Cl.Cn1c(=O)n(C2CCC(=O)NC2=O)c2ccc(CCCN3Cc4ccc(-c5ccc6cn(C7CCC(CNC(=O)c8cc(F)c(O)c(F)c8F)CC7)nc6c5)cc4C3)cc21 (racemic) [Example 1, N-{[(1r,4r)-4-{6-[2-(3-{1-[(3RS)-2,6-Dioxopiperidin-3-yl]-3-methyl-2-oxo-2,3-dihydro-1H-benzimidazol-5-yl}propyl)-2,3-dihydro-1H-isoindol-5-yl]-2H-indazol-2-yl}cyclohexyl]methyl}-2,3,5-trifluoro-4-hydroxybenzamide, hydrochloride salt]",0.11,87* %
"Cn1c(=O)n(C2CCC(=O)NC2=O)c2ccc(CCCN3Cc4ccc(-c5ccc6cn(C7CCC(CNC(=O)c8cc(F)c(O)c(F)c8F)CC7)nc6c5)nc4C3)cc21 (racemic) [Example 2, N-{[(1r,4r)-4-{6-[6-(3-{1-[(3RS)-2,6-Dioxopiperidin-3-yl]-3-methyl-2-oxo-2,3-dihydro-1H-benzimidazol-5-yl}propyl)-6,7-dihydro-5H-pyrrolo[3,4-b]pyridin-2-yl]-2H-indazol-2-yl}cyclohexyl]methyl}-2,3,5-trifluoro-4-hydroxybenzamide]",0.16,83* %
"Cl.Cn1c(=O)n(C2CCC(=O)NC2=O)c2ccc(CCCN3CCN(c4nccc(-c5nc(C67CCC(CNC(=O)c8cc(F)c(O)c(F)c8F)(CC6)CC7)no5)n4)CC3)cc21 (racemic) [Example 3, N-{[4-(5-{2-[4-(3-{1-[(3RS)-2,6-Dioxopiperidin-3-yl]-3-methyl-2-oxo-2,3-dihydro-1H-benzimidazol-5-yl}propyl)piperazin-1-yl]pyrimidin-4-yl}-1,2,4-oxadiazol-3-yl)bicyclo[2.2.2]octan-1-yl]methyl}-2,3,5-trifluoro-4-hydroxybenzamide, hydrochloride salt]",0.19,84* %
"Cn1c(=O)n(C2CCC(=O)NC2=O)c2ccc(CCCN3CCN(c4nccc(-c5nc(C67CCC(CNC(=O)c8cc(F)c(O)c(F)c8F)(CC6)CC7)cs5)n4)CC3)cc21.O=CO (racemic) [Example 4, N-{[4-(2-{2-[4-(3-{1-[(3RS)-2,6-Dioxopiperidin-3-yl]-3-methyl-2-oxo-2,3-dihydro-1H-benzimidazol-5-yl}propyl)piperazin-1-yl]pyrimidin-4-yl}-1,3-thiazol-4-yl)bicyclo[2.2.2]octan-1-yl]methyl}-2,3,5-trifluoro-4-hydroxybenzamide, formate salt]",0.38,84%
"Cn1c(=O)n(C2CCC(=O)NC2=O)c2ccc(CCCN3CCN(c4nccc(-c5csc(C67CCC(CNC(=O)c8cc(F)c(O)c(F)c8F)(CC6)CC7)n5)n4)CC3)cc21 (racemic) [Example 5, N-{[4-(4-{2-[4-(3-{1-[(3RS)-2,6-Dioxopiperidin-3-yl]-3-methyl-2-oxo-2,3-dihydro-1H-benzimidazol-5-yl}propyl)piperazin-1-yl]pyrimidin-4-yl}-1,3-thiazol-2-yl)bicyclo[2.2.2]octan-1-yl]methyl}-2,3,5-trifluoro-4-hydroxybenzamide]",0.31,82%
"O=C1CCC(N2Cc3c(OCc4ccc(CN5CCN(c6ccc7cn(C8CCC(CNC(=O)c9cc(F)c(O)c(F)c9)CC8)nc7c6)CC5)cc4)cccc3C2=O)C(=O)N1 (racemic) [Example 6, N-{[(1r,4r)-4-{6-[4-({4-[({2-[(3RS)-2,6-Dioxopiperidin-3-yl]-1-oxo-2,3-dihydro-1H-isoindol-4-yl}oxy)methyl]phenyl}methyl)piperazin-1-yl]-2H-indazol-2-yl}cyclohexyl]methyl}-3,5-difluoro-4-hydroxybenzamide]",1.4,76* %
"Cl.Cn1c(=O)n(C2CCC(=O)NC2=O)c2ccc(CCN3CCN(c4cnc(-c5ccc6cn(C7CCC(CNC(=O)c8cc(F)c(O)c(F)c8F)CC7)nc6c5)cn4)CC3)cc21 (racemic) [Example 8, N-{[(1r,4r)-4-(6-{5-[4-(2-{1-[(3RS)-2,6-Dioxopiperidin-3-yl]-3-methyl-2-oxo-2,3-dihydro-1H-benzimidazol-5-yl}ethyl)piperazin-1-yl]pyrazin-2-yl}-2H-indazol-2-yl)cyclohexyl]methyl}-2,3,5-trifluoro-4-hydroxybenzamide, hydrochloride salt]",0.21,87* %
"Cl.Cn1c(=O)n(C2CCC(=O)NC2=O)c2ccc(CCN3CCN(c4ccc5cn(C6CCC(CNC(=O)c7cc(F)c(O)c(F)c7F)CC6)nc5c4)CC3)cc21 (racemic) [Example 9, N-{[(1r,4r)-4-{6-[4-(2-{1-[(3RS)-2,6-Dioxopiperidin-3-yl]-3-methyl-2-oxo-2,3-dihydro-1H-benzimidazol-5-yl}ethyl)piperazin-1-yl]-2H-indazol-2-yl}cyclohexyl]methyl}-2,3,5-trifluoro-4-hydroxybenzamide, hydrochloride salt]",0.26,83* %
"Cn1c(=O)n(C2CCC(=O)NC2=O)c2ccc(CCCN3CCN(c4ncc(-c5ccn6cc(C78CCC(CNC(=O)c9cc(F)c(O)c(F)c9F)(CC7)CC8)nc6c5)cn4)CC3)cc21.O=C(O)C(F)(F)F (racemic) [Example 12, N-{[4-(7-{2-[4-(3-{1-[(3RS)-2,6-Dioxopiperidin-3-yl]-3-methyl-2-oxo-2,3-dihydro-1H-benzimidazol-5-yl}propyl)piperazin-1-yl]pyrimidin-5-yl}imidazo[1,2-a]pyridin-2-yl)bicyclo[2.2.2]octan-1-yl]methyl}-2,3,5-trifluoro-4-hydroxybenzamide, trifluoroacetate salt]",0.14,84%
"Cn1c(=O)n(C2CCC(=O)NC2=O)c2ccc(CCCN3CCOC4(C3)CN(c3ncc(-c5ccc6cn(C7CCC(CNC(=O)c8cc(F)c(O)c(F)c8F)CC7)nc6c5)cn3)C4)cc21.O=C(O)C(F)(F)F (racemic) [Example 13, N-{[(1r,4r)-4-(6-{2-[8-(3-{1-[(3RS)-2,6-Dioxopiperidin-3-yl]-3-methyl-2-oxo-2,3-dihydro-1H-benzimidazol-5-yl}propyl)-5-oxa-2,8-diazaspiro[3.5]nonan-2-yl]pyrimidin-5-yl}-2H-indazol-2-yl)cyclohexyl]methyl}-2,3,5-trifluoro-4-hydroxybenzamide, trifluoroacetate salt]",0.14,81%
"Cn1c(=O)n(C2CCC(=O)NC2=O)c2ccc(CCN3CCN(c4cncc(-c5ccc6cn(C7CCC(CNC(=O)c8cc(F)c(O)c(F)c8F)CC7)nc6c5)n4)CC3)cc21.O=C(O)C(F)(F)F (racemic) [Example 14, N-{[(1r,4r)-4-(6-{6-[4-(2-{1-[(3RS)-2,6-Dioxopiperidin-3-yl]-3-methyl-2-oxo-2,3-dihydro-1H-benzimidazol-5-yl}ethyl)piperazin-1-yl]pyrazin-2-yl}-2H-indazol-2-yl)cyclohexyl]methyl}-2,3,5-trifluoro-4-hydroxybenzamide, trifluoroacetate salt]",0.23,85%
"Cn1c(=O)n(C2CCC(=O)NC2=O)c2ccc(CCCN3CCN(c4ccc(-c5noc(C67CCC(CNC(=O)c8cc(F)c(O)c(F)c8F)(CC6)CC7)n5)nn4)CC3)cc21.O=C(O)C(F)(F)F (racemic) [Example 15, N-{[4-(3-{6-[4-(3-{1-[(3RS)-2,6-Dioxopiperidin-3-yl]-3-methyl-2-oxo-2,3-dihydro-1H-benzimidazol-5-yl}propyl)piperazin-1-yl]pyridazin-3-yl}-1,2,4-oxadiazol-5-yl)bicyclo[2.2.2]octan-1-yl]methyl}-2,3,5-trifluoro-4-hydroxybenzamide, trifluoroacetate salt]",0.31,85%
